Measurements as given in US4051252A, “3-Aminoindazole-1 and 2-carboxylic acid derivatives” (Bayer Aktiengesellschaft, priority 1974, dated 1977).

Experiments:
paw of rats = experiment: Carrageenin Anti-inflammatory Test (carrageenin edema on the paw of rats); assay type: in vivo, rat; conditions: one hour before carrageenin, measured 2 1/2 and 3 hours after carrageenin; for ED50: Rattus norvegicus, po
Protocol: The anti-inflammatory (antiphlogistic and anti-edematous) action of the compounds can be conveniently observed by the inhibition of carrageenin edema on the paw of rats. In this test, a reference measurement on the normal paws of rats is carried out half an hour before and half an hour after oral administration of the test compound, using an antiphlogmeter. One hour after administration of the substance, the edema is started by injecting a carrageenin solution into the planta pedis of one hind paw at 21/2 hours and 3 hours after the carrageenin injection, the effect on the edematous paw is measured. The relative paw volume is expressed as a percentage of the reference measurement (=100%). The ED50 is the dose at which, in 50% of the animals employed per dose, the difference between the relative paw volume of the treated animals and the relative paw volume of the 10 control groups is 100.

[1] = Acute Toxicity (oral, mouse); conditions: in vivo
Text: The pharmacological properties can be conveniently observed in recognized in vivo models.

rats [2] = experiment: Phenylquinone Writhing Test (analgesic activity); assay type: in vivo; conditions: Rattus norvegicus, oral, 60 minutes before phenylquinone i.p., writhing reduced to half of control
Protocol: Analgesic activity can also be observed in the phenylquinone writhing test in which 100 μg of phenylquinone, dissolved in 0.5 ml of 5% strength alcohol, are injected intraperitoneally into rats. A few minutes after administration, the animals show the characteristic writhing reaction, which consists of the animals showing extreme backward extension of the hind paws, flexing the back and lifting the tail. At the same time, wave-like contractions frequently pass over the abdominal muscles. The inhibition of this writhing syndrome is assessed to be an analgesic effect. The substance to be investigated is administered 30 minutes (in the case of subcutaneous administration) or 60 minutes (in the case of oral administration) before the injection of phenylquinone. Five animals are employed per compound and per dose. The ED50 is the dose at which the number of writhing reactions in the animals employed is on average reduced to half that of the control group [see generally: Siegmung et al., Proc. Soc. exp. Biol. Med. 95, 729-731 (1957)].

rats [3] = experiment: Yeast Antipyretic Test; assay type: in vivo, rat; conditions: oral, raised body temperature lowered by 1° C in 50% of animals
Protocol: Antipyretic action can be observed in rats to which a beer yeast suspension has been administered subcutaneously. The body temperature is measured rectally before and 16 hours after administration of the beer years. The substance to be tested is administered orally to groups of 5 rats in which the body temperature has risen by at least 1° C. Thereafter, the temperature drop is measured rectally with a drop in the body temperature of at least 1° C being assessed as an antipyretic effet. The Ed50 is the dose at which, in 50% of the animals employed, the raised body temperature is lowered by 1° C upon administration of the active substance according to the invention.

tails of rats = experiment: Tail Flick Test (analgesic action); assay type: in vivo; conditions: Rattus norvegicus; oral, male rats; reaction time of 50% of animals lengthened to at least 20 seconds
Text: Analgesic action can be observed in the tail flick test on the tails of rats in which the tail of male rats is irradiated with a focused heat ray. In this test, untreated animals react after an average irradiation time of 5.1±0.8 seconds (reaction time) by drawing away the tail. Under the influence of analgesically active compounds, this reaction time becomes longer. Active compounds which after administration prolong the reaction time of the animals to at least 20 seconds are considered to be analgesically active. Five animals are employed per dose. The ED50 is the dose which on average lengthens the reaction time of 50% of the animals employed to at least 20 seconds [see generally Wolff et al., J. Clin. Invest., 19, 659-680 (1940)].

Q: Which ED50 (paw of rats) does the source give for CCOC(=O)n1nc(N)c2ccccc21 [3-aminoindazole-1-carboxylic acid ethyl ester] here?
A: The ED50 was roughly 47 mg/kg.

Q: What about the LD50 [1] of the same molecule?
A: The LD50 was roughly 3000 mg/kg.

Q: For Nc1n[nH]c2ccc(C(F)(F)F)cc12 [3-amino-5-trifluoromethylindazole, reference compound], which ED50 (rats [2]) is on record?
A: The ED50 was 61 mg/kg.

Q: And the LD50 [1]?
A: The LD50 was 228 mg/kg.

Q: And the ED50 (rats [3])?
A: The ED50 was 48 mg/kg.

Q: What about the ED50 (tails of rats) of the same molecule?
A: The ED50 was 67 mg/kg.

Q: With CN(C)C(=O)n1nc2cc(Cl)ccc2c1N [3-amino-6-chloroindazole-2-carboxylic acid dimethylamide] as the molecule, how does the ED50 (rats [2]) read?
A: Its ED50 is 17 mg/kg.

Q: And the ED50 (rats [3])?
A: The ED50 was 23 mg/kg.

Q: What does the source list for COC(=O)n1nc(N)c2ccc(Cl)cc21 [3-amino-6-chloroindazole-1-carboxylic acid methyl ester]?
A: ED50 (rats [2]): ~10 mg/kg; ED50 (paw of rats): ~40 mg/kg; LD50 [1]: > 1000 mg/kg; ED50 (rats [3]): ~20 mg/kg; ED50 (tails of rats): 30 mg/kg

Q: For CCCCOC(=O)n1nc(N)c2ccc(Cl)cc21 [3-amino-6-chloroindazole-1-carboxylic acid n-butyl ester], which ED50 (paw of rats) is on record?
A: Its ED50 is 67 mg/kg.

Q: And the LD50 [1]?
A: The LD50 was greater than 1000 mg/kg.

Q: For CN(C)C(=O)n1nc(NC=O)c2ccc(C(F)(F)F)cc21 [3-formylamino-6-trifluoromethyl-1-carboxylic acid dimethylamide], which “ED50 (oral), Carrageenin Anti-inflammatory Test” value (paw of rats) is on record?
A: The value was 92 (44-216) mg/kg.

Q: Which results are given for CN(C)C(=O)n1nc(N)c2ccc(Cl)cc21 [3-amino-6-chloroindazole-1-carboxylic acid-dimethylamide]?
A: LD50 [1]: > 1000 mg/kg; ED50 (rats [3]): 41 mg/kg

Q: Which results are given for CCNC(=O)n1nc(N)c2cc(C(F)(F)F)ccc21 [3-amino-5-trifluoromethylindazole-1-carboxylic acid ethylamide]?
A: LD50 [1]: > 1000 mg/kg; ED50 (rats [3]): 51 mg/kg; ED50 (tails of rats): 53 mg/kg

Q: What does the source list for CN(C)C(=O)n1nc(NC=O)c2cc(C(F)(F)F)ccc21 [3formylamino-5-trifluoromethylindazole-1-carboxylic acid dimethylamide]?
A: LD50 [1]: > 1000 mg/kg; ED50 (rats [3]): 14 mg/kg

Q: For CCOC(=O)n1nc(N(C)C)c2ccc(Cl)cc21 [3-dimethylamino-6-chloroindazole-1-carboxylic acid ethyl ester], which ED50 (rats [2]) is on record?
A: Its ED50 is 17 mg/kg.

Q: What about the LD50 [1] of the same molecule?
A: The LD50 was greater than 5000 mg/kg.

Q: And the ED50 (rats [3])?
A: Its ED50 is 5.2 mg/kg.

Q: What does the source list for CCOC(=O)n1nc(N)c2ccc(Cl)cc21 [3-amino-6-chloroindazole-1-carboxylic acid ethyl ester]?
A: ED50 (paw of rats): ~77 mg/kg; ED50 (oral), Carrageenin Anti-inflammatory Test (paw of rats): 68 (44-138) mg/kg; LD50 [1]: ~2000 mg/kg

Q: Which results are given for COC(=O)n1nc(N)c2cc(C(F)(F)F)ccc21 [3-amino-5-trifluoromethylindazole-1-carboxylic acid methyl ester]?
A: ED50 (rats [3]): ~50 mg/kg; ED50 (tails of rats): 41 mg/kg

Q: For CCOC(=O)n1nc(N)c2ccc(C(F)(F)F)cc21 [3-amino-6-trifluoromethylindazole-1-carboxylic acid ethyl ester], which ED50 (rats [3]) is on record?
A: The ED50 was roughly 50 mg/kg.

Q: And the ED50 (tails of rats)?
A: Its ED50 is 53 mg/kg.

Q: What does the source list for CCOC(=O)n1nc(N)c2cc(C(F)(F)F)ccc21 [3-amino-5-trifluoromethylindazole-1-carboxylic acid ethyl ester]?
A: ED50 (rats [2]): 1 mg/kg; LD50 [1]: > 5000 mg/kg
